Patent publication US20230278972A1, “SUBSTITUTED HALOALKYL SULFONANILIDE HERBICIDES” (FMC Corporation, priority 2020, published 2023)

Experiments:
Format in all cases: in vivo
kochia (Bassia scoparia) [1] = assay: Test A preemergence, kochia; settings: Preemergence; for Kochia plant response rating: 125 g ai/ha, visual injury on 0 to 100 scale (0 no effect, 100 complete control), approximately 10 days; for Plant response rating, Kochia: 500 g ai/ha, 0 to 100 scale (0 no effect, 100 complete control)
Outline: (§1)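 Test chemicals, formulated in a non-phytotoxic solvent mixture with surfactant, were sprayed postemergence on plants 2 to 10 cm tall at the one- to two-leaf stage. Preemergence treatment was a directed soil spray onto freshly seeded pots. Both used a loam soil and sand blend.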

[2] = tested on: pigweed (Amaranthus retroflexus); assay: Test A preemergence, pigweed; settings: for Pigweed plant response rating: 125 g ai/ha, visual injury on 0 to 100 scale (0 no effect, 100 complete control), approximately 10 days; for Plant response rating, Pigweed: 500 g ai/ha, 0 to 100 scale (0 no effect, 100 complete control)
Outline: as §1

[3] = tested on: galium (catchweed bedstraw, Galium aparine); assay: Test A postemergence, galium; settings: Postemergence, 0 to 100 scale (0 no effect, 100 complete control); for Plant response rating, Galium: 125 g ai/ha, visual injury approx. 10 days; for Galium plant response rating: 500 g ai/ha, visual injury vs untreated controls after approx. 10 days
Outline: as §1

[4] = tested on: blackgrass (Alopecurus myosuroides); assay: Test A postemergence, blackgrass; settings: Postemergence, 0 to 100 scale (0 no effect, 100 complete control); for Plant response rating, Blackgrass: 125 g ai/ha, visual injury approx. 10 days; for Blackgrass plant response rating: 500 g ai/ha, visual injury vs untreated controls after approx. 10 days
Outline: as §1

[5] = tested on: Ryegrass, Italian (Italian ryegrass, Lolium multiflorum); assay: Test A preemergence, Ryegrass, Italian; settings: Preemergence; for Ryegrass, Italian plant response rating: 125 g ai/ha, visual injury on 0 to 100 scale (0 no effect, 100 complete control), approximately 10 days; for Plant response rating, Ryegrass, Italian: 500 g ai/ha, 0 to 100 scale (0 no effect, 100 complete control)
Outline: as §1

[6] = tested on: ragweed (common ragweed, Ambrosia artemisiifolia); assay: Test A postemergence, ragweed; settings: Postemergence, 0 to 100 scale (0 no effect, 100 complete control); for Plant response rating, Ragweed: 125 g ai/ha, visual injury approx. 10 days; for Ragweed plant response rating: 500 g ai/ha, visual injury vs untreated controls after approx. 10 days
Outline: as §1

[7] = tested on: Ryegrass, Italian (Italian ryegrass, Lolium multiflorum); assay: Test A postemergence, Ryegrass, Italian; settings: Postemergence, 0 to 100 scale (0 no effect, 100 complete control); for Plant response rating, Ryegrass, Italian: 125 g ai/ha, visual injury approx. 10 days; for Ryegrass, Italian plant response rating: 500 g ai/ha, visual injury vs untreated controls after approx. 10 days
Outline: as §1

[8] = tested on: barnyardgrass (Echinochloa crus-galli); assay: Test A postemergence, barnyardgrass; settings: Postemergence, 0 to 100 scale (0 no effect, 100 complete control); for Plant response rating, Barnyardgrass: 125 g ai/ha, visual injury approx. 10 days; for Barnyardgrass plant response rating: 500 g ai/ha, visual injury vs untreated controls after approx. 10 days
Outline: as §1

[9] = tested on: wheat (Triticum aestivum); assay: Test A postemergence, wheat; settings: Postemergence, 0 to 100 scale (0 no effect, 100 complete control); for Plant response rating, Wheat: 125 g ai/ha, visual injury approx. 10 days; for Wheat plant response rating: 500 g ai/ha, visual injury vs untreated controls after approx. 10 days
Outline: as §1

corn (Zea mays) = assay: Test A postemergence, corn; settings: Postemergence, 0 to 100 scale (0 no effect, 100 complete control); for Plant response rating, Corn: 125 g ai/ha, visual injury approx. 10 days; for Corn plant response rating: 500 g ai/ha, visual injury vs untreated controls after approx. 10 days
Outline: as §1

[10] = tested on: Foxtail, Giant (giant foxtail, Setaria faberi); assay: Test A postemergence, Foxtail, Giant; settings: Postemergence, 0 to 100 scale (0 no effect, 100 complete control); for Plant response rating, Foxtail, Giant: 125 g ai/ha, visual injury approx. 10 days; for Foxtail, Giant plant response rating: 500 g ai/ha, visual injury vs untreated controls after approx. 10 days
Outline: as §1

[11] = tested on: Foxtail, Giant (giant foxtail, Setaria faberi); assay: Test A preemergence, Foxtail, Giant; settings: Preemergence; for Foxtail, Giant plant response rating: 125 g ai/ha, visual injury on 0 to 100 scale (0 no effect, 100 complete control), approximately 10 days; for Plant response rating, Foxtail, Giant: 500 g ai/ha, 0 to 100 scale (0 no effect, 100 complete control)
Outline: as §1

[12] = tested on: pigweed (Amaranthus retroflexus); assay: Test A postemergence, pigweed; settings: Postemergence, 0 to 100 scale (0 no effect, 100 complete control); for Plant response rating, Pigweed: 125 g ai/ha, visual injury approx. 10 days; for Pigweed plant response rating: 500 g ai/ha, visual injury vs untreated controls after approx. 10 days
Outline: as §1

[13] = tested on: ragweed (common ragweed, Ambrosia artemisiifolia); assay: Test A preemergence, ragweed; settings: Preemergence; for Ragweed plant response rating: 125 g ai/ha, visual injury on 0 to 100 scale (0 no effect, 100 complete control), approximately 10 days; for Plant response rating, Ragweed: 500 g ai/ha, 0 to 100 scale (0 no effect, 100 complete control)
Outline: as §1

[14] = tested on: barnyardgrass (Echinochloa crus-galli); assay: Test A preemergence, barnyardgrass; settings: Preemergence; for Barnyardgrass plant response rating: 125 g ai/ha, visual injury on 0 to 100 scale (0 no effect, 100 complete control), approximately 10 days; for Plant response rating, Barnyardgrass: 500 g ai/ha, 0 to 100 scale (0 no effect, 100 complete control)
Outline: as §1

kochia (Bassia scoparia) [15] = assay: Test A postemergence, kochia; settings: Postemergence, 0 to 100 scale (0 no effect, 100 complete control); for Plant response rating, Kochia: 125 g ai/ha, visual injury approx. 10 days; for Kochia plant response rating: 500 g ai/ha, visual injury vs untreated controls after approx. 10 days
Outline: as §1

Compound | Kochia plant response rating (kochia (Bassia scoparia) [1]) | Plant response rating, Kochia (kochia (Bassia scoparia) [1]) | Pigweed plant response rating [2] | Plant response rating, Pigweed [2] | Plant response rating, Galium [3] | Galium plant response rating [3] | Plant response rating, Blackgrass [4] | Blackgrass plant response rating [4] | Ryegrass, Italian plant response rating [5] | Plant response rating, Ryegrass, Italian [5] | Plant response rating, Ragweed [6] | Ragweed plant response rating [6] | Plant response rating, Ryegrass, Italian [7] | Ryegrass, Italian plant response rating [7] | Plant response rating, Barnyardgrass [8] | Barnyardgrass plant response rating [8] | Plant response rating, Wheat [9] | Wheat plant response rating [9] | Plant response rating, Corn (corn (Zea mays)) | Corn plant response rating (corn (Zea mays)) | also measured
COc1cc(-c2cc(NS(=O)(=O)C(F)(F)F)c(C)cc2C)c(=O)n(C)n1 [Compound 70] | 0 | 0 | 80 | 80 | 60 | 80 | 30 | 30 | 50 | 60 | 0 | 0 | 0 | 0 | 0 | 50 | 0 | 30 | 0 | 0 | Plant response rating, Foxtail, Giant [10]: 0; Foxtail, Giant plant response rating [10]: 20; Foxtail, Giant plant response rating [11]: 10; Plant response rating, Foxtail, Giant [11]: 90; Plant response rating, Pigweed [12]: 0; Pigweed plant response rating [12]: 20; Ragweed plant response rating [13]: 10; Plant response rating, Ragweed [13]: 70; Barnyardgrass plant response rating [14]: 90; Plant response rating, Barnyardgrass [14]: 100; Plant response rating, Kochia (kochia (Bassia scoparia) [15]): 0; Kochia plant response rating (kochia (Bassia scoparia) [15]): 0
Cc1cc(C)c(-c2cc(C(F)(F)F)nn(C)c2=O)cc1NS(=O)(=O)C(F)(F)F [Compound 71] | 80 | 40 | 40 | 60 | 50 | 80 | 0 | 70 | 70 | 100 | 0 | 0 | 70 | 80 | 0 | 80 | 40 | 70 | 0 | 30 | Plant response rating, Foxtail, Giant [10]: 0; Foxtail, Giant plant response rating [10]: 90; Foxtail, Giant plant response rating [11]: 80; Plant response rating, Foxtail, Giant [11]: 100; Plant response rating, Pigweed [12]: 0; Pigweed plant response rating [12]: 60; Ragweed plant response rating [13]: 10; Plant response rating, Ragweed [13]: 60; Barnyardgrass plant response rating [14]: 0; Plant response rating, Barnyardgrass [14]: 100; Plant response rating, Kochia (kochia (Bassia scoparia) [15]): 20; Kochia plant response rating (kochia (Bassia scoparia) [15]): 40
Cc1cc(C)c(-c2ccnn(CC(C)C)c2=O)cc1NS(=O)(=O)C(F)(F)F [Compound 77] | 0 | 0 | 20 | 30 | 0 | 40 | 0 | 0 | 0 | 90 | 0 | 10 | 0 | 0 | 0 | 20 | 0 | 70 | 0 | 60 | Plant response rating, Foxtail, Giant [10]: 0; Foxtail, Giant plant response rating [10]: 40; Foxtail, Giant plant response rating [11]: 90; Plant response rating, Foxtail, Giant [11]: 100; Plant response rating, Pigweed [12]: 0; Pigweed plant response rating [12]: 0; Ragweed plant response rating [13]: 0; Plant response rating, Ragweed [13]: 20; Barnyardgrass plant response rating [14]: 90; Plant response rating, Barnyardgrass [14]: 90; Plant response rating, Kochia (kochia (Bassia scoparia) [15]): 0; Kochia plant response rating (kochia (Bassia scoparia) [15]): 10
Cc1cc(C)c(-c2ccnn(C(C)C)c2=O)cc1NS(=O)(=O)C(F)(F)F [Compound 78] | 0 | 60 | 30 | 90 | 60 | 90 | 0 | 30 | 100 | 100 | 0 | 40 | 40 | 60 | 40 | 70 | 0 | 70 | 0 | 50 | Plant response rating, Foxtail, Giant [10]: 70; Foxtail, Giant plant response rating [10]: 90; Foxtail, Giant plant response rating [11]: 100; Plant response rating, Foxtail, Giant [11]: 100; Plant response rating, Pigweed [12]: 0; Pigweed plant response rating [12]: 50; Ragweed plant response rating [13]: 80; Plant response rating, Ragweed [13]: 90; Barnyardgrass plant response rating [14]: 90; Plant response rating, Barnyardgrass [14]: 100; Plant response rating, Kochia (kochia (Bassia scoparia) [15]): 0; Kochia plant response rating (kochia (Bassia scoparia) [15]): 20
CCn1nccc(-c2cc(NS(=O)(=O)C(F)(F)F)c(C)cc2C)c1=O [Compound 79] | 70 | 90 | 90 | 100 | 90 | 90 | 30 | 30 | 90 | 100 | 30 | 80 | 40 | 80 | 80 | 90 | 70 | 80 | 10 | 70 | Plant response rating, Foxtail, Giant [10]: 90; Foxtail, Giant plant response rating [10]: 90; Foxtail, Giant plant response rating [11]: 100; Plant response rating, Foxtail, Giant [11]: 100; Plant response rating, Pigweed [12]: 30; Pigweed plant response rating [12]: 80; Ragweed plant response rating [13]: 80; Plant response rating, Ragweed [13]: 90; Barnyardgrass plant response rating [14]: 100; Plant response rating, Barnyardgrass [14]: 100; Plant response rating, Kochia (kochia (Bassia scoparia) [15]): 40; Kochia plant response rating (kochia (Bassia scoparia) [15]): 70
